Drawing on PubChem BioAssay AID2738 (Broad Institute, 2010), this text covers IC50 for 20 compounds.

Active and inactive are the calls of the source.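 How the source made its calls: active means IC50 at or below ten times the top tested concentration; inconclusive means flat fit at 30 to 70% inhibition, or invalid poor fit; inactive means IC50 beyond ten times the top tested dose.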 Where only a bound is given, the exact number is not on record here.

The target in this assay is POS-1 (Caenorhabditis elegans) binding to mex-3 RNA. The experiment in a line: disruptors of C. elegans POS-1 RNA interaction – biochemical, fluorescence polarization, up to 135 µM, dose response (AID 2738). Particulars: POS-1-MBP / FITC mex-3 RNA.
Regarding `CCc1ccccc1N1C(=O)/C(=C\c2ccc(N3CCN(C)CC3)o2)C(=O)NC1=S`, the IC50 is > 135 µM (inactive). Under `CCOC(=O)c1cc(CC)sc1/N=C/c1c(O)[nH]c(=S)[nH]c1=O` stands 45.5 µM. Take `Cc1nc2ccccc2c(=O)n1/N=C/c1ccc(O)c(O)c1O`: the IC50 is 16.9 µM.

`COc1ccc(-c2cn[nH]c2-c2ccc(OCC(=O)NN)cc2O)cc1OC`: the IC50 is > 135 µM (inactive). In the case of `CCN(CC)c1ccc(/C=C2\C(=O)NC(=S)N(C)C2=O)o1`, the IC50 is > 135 µM (inactive). The result for `CC1=C(C(=O)OCc2ccccc2)C(c2ccccc2[N+](=O)[O-])NC(=O)N1C` (stereo not given) reads 25.6 µM; that for `O=C(NNC(=O)c1ccccc1[N+](=O)[O-])c1csc(N2CCOCC2)n1`, 119 µM; that for `CCN(CC)CCCNC(=O)CCC(=O)NNc1nc2ccccc2c2nc(C)nn12`, 2.2 µM. Under `ON=C1/C(=N\O)CC2(C/C1=N/O)OCCO2` stands > 135 µM (inactive); under `Cn1ncc2c(NNC(=O)Cc3ccccc3)ncnc21`, 127 µM; under `NC(CO)C(=O)NNCc1ccc(O)c(O)c1O` (stereo not given), > 135 µM (inactive).

`Cc1ccc(N2C(=O)NC(=O)/C(=C\c3cc(C)n(-c4ccc(C(=O)O)cc4)c3C)C2=O)cc1`: the IC50 was > 135 µM (inactive). The result for `O=c1c(O)cccc2cc(O)c(O)c(O)c12` reads 11.9 µM; that for `COCCCNC(=O)CCC(=O)NNc1nc2ccccc2c2nc(C)nn12`, 8.56 µM. Under `CCCCN(C)C(=O)CCC(=O)NNc1nc2ccccc2c2nc(C)nn12` stands 62.3 µM; under `O=CN/N=C/c1c(O)ccc2ccccc12`, 22 µM; under `Oc1ccc(CCNc2c3ccccc3nc3ccccc23)cc1O`, > 135 µM (inactive). The result for `N=c1c(C(=O)NC2CCCCC2)cc2c(=O)n3ccccc3nc2n1Cc1cccnc1` reads > 350 µM (inactive); that for `Cc1ncc(CO)c(/C=N/NC(=O)c2cc(Br)ccc2O)c1O`, 51.2 µM. Regarding `CCN(CC)c1ccc(/C=C2\C(=O)NC(=S)N(c3ccc(OC)cc3OC)C2=O)o1`, the IC50 was > 135 µM (inactive).
